Reference: PubChem BioAssay AID624323 (Sanford-Burnham Center for Chemical Genomics, 2012)
Converted amounts (≈) assume the structure as drawn. The source made the active and inactive calls. How the calls were made is not given here.

Test system: aqueous buffer solubility, pH 5.0/6.2/7.4
Experiment: compound solubility, pH 5.0, 6.2, 7.4 – biophysical, set 2, ADME assay (AID 624323)
Conditions: at 100 µM, stronger effect = higher value
[1] = measured here: solubility at pH 5.0
[2] = measured here: solubility at pH 6.2

Structure (SMILES) | solubility | solubility [1] [µg/mL] | solubility [2] [µg/mL]
Cc1ccc(C)c(NS(=O)(=O)c2cc(C(=O)Nc3ccccc3-c3ccccc3)ccc2Cl)c1 | 0.81 µg/mL (inactive) (≈ 1.65 µM) | < 0.1 | < 0.1
CCCc1nc2c(=O)n(C)c(=O)nc-2n(C)n1 | > 23 µg/mL | > 23 | > 23
Cc1cc2c(s1)c1cnn(Cc3ccccc3F)c(=O)c1n2C | 0.11 µg/mL (inactive) (≈ 0.336 µM) | 0.16 (≈ 0.489 µM) | 0.19 (≈ 0.58 µM)
COc1ccc(C2c3c(ncn(CCN4CCOCC4)c3=N)Oc3ccc4ccccc4c32)cc1OC (stereo not drawn) | 41.5 µg/mL (≈ 83.2 µM) | > 49 | 41.2 (≈ 82.6 µM)
CN1CSC(=S)N(C)C1 | > 16 µg/mL | 12.4 (≈ 76.4 µM) | 12.7 (≈ 78.3 µM)
O=C1CCCC2=C1C1(CCCC1)N=C(Nc1nc3ccccc3o1)N2 | 0.07 µg/mL (inactive) (≈ 0.208 µM) | 0.07 (≈ 0.208 µM) | 0.09 (≈ 0.268 µM)
O=C(CSc1cccc2cccnc12)N1CCCC1 | > 27 µg/mL | > 27 | > 27
COc1cc(NC(=O)c2cc(C3CC3)on2)c(OC)cc1Cl | 0.06 µg/mL (inactive) (≈ 0.186 µM) | < 0.01 | 0.05 (≈ 0.155 µM)
CC1CCCN(C(C(=O)Nc2ccc3c(c2)OCCO3)c2ccccc2)C1 (stereo not drawn) | 1.7 µg/mL (inactive) (≈ 4.64 µM) | > 36 | > 36
CC(C)C(=O)NC(c1ccco1)c1ccc2cccnc2c1O (stereo not drawn) | 3.3 µg/mL (inactive) (≈ 10.6 µM) | 2.8 (≈ 9.02 µM) | 2.7 (≈ 8.7 µM)
CCCN1CNc2c(c(=O)[nH]c(=S)n2CCc2ccc(OC)c(OC)c2)C1 | > 39 µg/mL | > 39 | > 39
O=c1c(O)c(-c2cc(O)c(O)c(O)c2)oc2cc(O)cc(O)c12 | 1.7 µg/mL (inactive) (≈ 5.34 µM) | 3.2 (≈ 10.1 µM) | 5.3 (≈ 16.7 µM)
Cc1ccc(S(=O)(=O)NCc2ccc(C(=O)NCCN(Cc3ccccc3)C(C)C)cc2)cc1 | 19.6 µg/mL (≈ 40.9 µM) | > 47 | 34.7 (≈ 72.3 µM)
c1ccc(-c2nnc(N3CCOCC3)nc2-c2ccccc2)cc1 | 2.3 µg/mL (inactive) (≈ 7.22 µM) | 2 (≈ 6.28 µM) | 1.8 (≈ 5.65 µM)
COc1ccccc1N(/N=C1\Sc2ccccc2C1=O)C(C)=O | 2.4 µg/mL (inactive) (≈ 7.35 µM) | 2.4 (≈ 7.35 µM) | 2.7 (≈ 8.27 µM)
O=C(O)c1ccc(N2C(=O)/C(=C/c3ccc(-c4ccc([N+](=O)[O-])cc4)o3)C=C2c2ccccc2)cc1 | 0.79 µg/mL (inactive) (≈ 1.65 µM) | 0.59 (≈ 1.23 µM) | 13.4 (≈ 28 µM)
O=S1(=O)Nc2c(ccc3cccnc23)-c2ccccc21 | > 2.8 µg/mL (inactive) | 9.6 (≈ 34 µM) | 13.6 (≈ 48.2 µM)
C=CCn1c(SCC(=O)c2ccc(O)c(O)c2)nnc1-c1ccccc1OC | 24 µg/mL (≈ 60.4 µM) | 4.5 (≈ 11.3 µM) | 5.3 (≈ 13.3 µM)
Cc1cc(C)n(-c2nc(NCCCO)c3c4c(sc3n2)CCCC4)n1 | 20.7 µg/mL (≈ 57.9 µM) | 17.6 (≈ 49.2 µM) | 20.4 (≈ 57.1 µM)
Cc1cccc(-n2cnc3cc(C(=O)N4CCCCC4)ccc32)c1 | > 32 µg/mL | > 32 | > 32
Brc1cc2c(cc1C1Nc3ccccc3C3C=CCC31)OCO2 (stereo not drawn) | < 0.01 µg/mL (inactive) | < 0.01 | 0.04 (≈ 0.108 µM)
O=C(CCNS(=O)(=O)c1cccc2nsnc12)N1CCN(c2ccccn2)CC1 | > 43 µg/mL | 35.8 (≈ 82.8 µM) | 35.5 (≈ 82.1 µM)

Structure (SMILES) | solubility | solubility [1] [µg/mL] | solubility [2] [µg/mL]
COc1ccc(CNCc2cccc3ccccc23)cc1 | 26.2 µg/mL (≈ 94.5 µM) | > 36 | > 36
CC(C)(C)OC(=O)NCCc1nnc(S(=O)(=O)Cc2ccc(Cl)cc2Cl)o1 | 7.4 µg/mL (inactive) (≈ 17 µM) | 14.6 (≈ 33.5 µM) | 4.8 (≈ 11 µM)
CN(C)C1=C(Cl)C(=O)N(c2ccc(Cl)c(Cl)c2)C1=O | < 0.01 µg/mL (inactive) | 0.06 (≈ 0.188 µM) | 0.12 (≈ 0.375 µM)
O=[N+]([O-])c1ccc(CN2CCOCCOCCN(Cc3ccc([N+](=O)[O-])cc3)CCOCC2)cc1 | 27.4 µg/mL (≈ 56.1 µM) | > 48 | > 48
COc1ccc(Sc2ccc(NC(=O)c3ccccc3Cl)cc2C#N)cc1 | 0 µg/mL (inactive) | 0.01 (≈ 0.0253 µM) | < 0.01
Cc1ccc(C)c(OCCn2cc(C(=O)O)c3ccccc32)c1 | 20.1 µg/mL (≈ 65 µM) | 0.19 (≈ 0.614 µM) | 0.34 (≈ 1.1 µM)
CCCN(CCC)CCNC(=O)C1CCN(Cc2nc(-c3ccc(Cl)cc3)oc2C)CC1 | > 46 µg/mL | > 46 | > 46
CCCOc1ccc(-c2nc(OC)c3ccccc3n2)cc1 | 0.02 µg/mL (inactive) (≈ 0.0679 µM) | 0.05 (≈ 0.17 µM) | < 0.01
Cn1nnnc1Sc1ncnc2scc(-c3ccccc3)c12 | 3.5 µg/mL (inactive) (≈ 10.7 µM) | 2.9 (≈ 8.88 µM) | 3.1 (≈ 9.5 µM)
COc1ccc(S(=O)(=O)n2nc(OC(=O)c3ccccc3)cc2N)cc1 | 14.9 µg/mL (≈ 39.9 µM) | 0.46 (≈ 1.23 µM) | 2 (≈ 5.36 µM)
c1ccc2c(Nc3nnc(-c4ccncc4)s3)cccc2c1 | 3.5 µg/mL (inactive) (≈ 11.5 µM) | 3.3 (≈ 10.8 µM) | 3.5 (≈ 11.5 µM)
Cc1nc(SCc2nc3ccccc3[nH]2)c2oc3ccccc3c2n1 | 0.11 µg/mL (inactive) (≈ 0.318 µM) | 0.26 (≈ 0.751 µM) | 0.22 (≈ 0.635 µM)
O=C(O)c1ccccc1OCc1ccccc1Br | > 30 µg/mL | > 30 | > 30
O=C(O)c1cccnc1SCCc1ccccc1 | > 26 µg/mL | > 26 | > 26
COc1ccc(N(C(=O)CCl)C(C(=O)NCCc2ccccc2)c2cccs2)cc1Cl (stereo not drawn) | 1.2 µg/mL (inactive) (≈ 2.51 µM) | 0.61 (≈ 1.28 µM) | 0.86 (≈ 1.8 µM)
CCc1nnc(NC(=O)c2ccc(NS(=O)(=O)c3ccccc3)cc2)s1 | 0.78 µg/mL (inactive) (≈ 2.01 µM) | 0.09 (≈ 0.232 µM) | 0.16 (≈ 0.412 µM)
CN(C)c1nc(N)nc(CSc2nnnn2-c2cccc3ccccc23)n1 | 1 µg/mL (inactive) (≈ 2.64 µM) | 2.8 (≈ 7.38 µM) | 1 (≈ 2.64 µM)
CCOc1ccc(NC(=S)N2CCC(C(O)(c3ccccc3)c3ccccc3)CC2)cc1 | 0.37 µg/mL (inactive) (≈ 0.828 µM) | 1.1 (≈ 2.46 µM) | 0.8 (≈ 1.79 µM)
c1ccc(CC2CCN(c3ncnc4sccc34)CC2)cc1 | < 0.01 µg/mL (inactive) | < 0.01 | 0.01 (≈ 0.0323 µM)
O=C(COc1ccccc1Br)NCCc1nc2ccccc2[nH]1 | > 37 µg/mL | > 37 | > 37
Cc1ccc(S(=O)(=O)C(c2ccccc2)c2c(C)noc2C)cc1 (stereo not drawn) | 16.5 µg/mL (≈ 48.3 µM) | 15.5 (≈ 45.4 µM) | 16.9 (≈ 49.5 µM)
O=c1c2ccccc2[se]n1-c1ccccc1 | 5.6 µg/mL (inactive) (≈ 20.4 µM) | 5 (≈ 18.2 µM) | 6 (≈ 21.9 µM)

Structure (SMILES) | solubility | solubility [1] [µg/mL] | solubility [2] [µg/mL]
COc1cccc(-c2nc(-c3ccc(NC(=O)Cc4ccccc4OC)cc3)no2)c1 | < 0.01 µg/mL (inactive) | 0.09 (≈ 0.217 µM) | 0.05 (≈ 0.12 µM)
Cc1ccc(N2CCN(S(=O)(=O)N3CCCCC3)CC2)c(C)c1 | 1.6 µg/mL (inactive) (≈ 4.74 µM) | 1.8 (≈ 5.33 µM) | 1.5 (≈ 4.44 µM)
CCOC(=O)C(C)Oc1cccc2c(=O)n(CC(=O)Nc3ccc4c(c3)OCCO4)ccc12 (stereo not drawn) | 0.36 µg/mL (inactive) (≈ 0.796 µM) | 0.27 (≈ 0.597 µM) | 0.31 (≈ 0.685 µM)
O=C(COC(=O)C12CC3CC(CC(C3)C1)C2)NCc1ccco1 | 2.6 µg/mL (inactive) (≈ 8.19 µM) | < 0.1 | 4.2 (≈ 13.2 µM)
CCOc1ccc(-c2nc(-c3ccncc3)no2)cc1OCC | 1.3 µg/mL (inactive) (≈ 4.18 µM) | 1.1 (≈ 3.53 µM) | 1.3 (≈ 4.18 µM)
O=C1NCCCc2c1oc1ccc(O)cc21 | > 22 µg/mL | > 22 | > 22
Cc1ccccc1N1CCN(c2ncnc3c2cnn3Cc2ccc(Cl)cc2)CC1 | < 0.01 µg/mL (inactive) | 0.03 (≈ 0.0716 µM) | < 0.01
COc1ccc(CSc2nc(C)cc(=O)[nH]2)cc1 | > 26 µg/mL | > 26 | > 26
COc1ccc(OC)c(-c2nnc3n2N=C(c2ccc(OC)c(OC)c2)CS3)c1 | 26.1 µg/mL (≈ 63.3 µM) | 28.2 (≈ 68.4 µM) | 29.5 (≈ 71.5 µM)
O=C1C2CC=CCC2C(=O)N1c1n[nH]c(-c2ccccc2)n1 (stereo not drawn) | > 29 µg/mL | 16 (≈ 54.4 µM) | 20.2 (≈ 68.6 µM)
Cc1ccc(C(=O)n2c3ccccc3c3ccccc32)cc1 | < 0.01 µg/mL (inactive) | < 0.01 | < 0.01
CSc1nc(-c2ccc(C)cc2)nc(C(Cl)Cl)n1 | 0.01 µg/mL (inactive) (≈ 0.0333 µM) | 0.02 (≈ 0.0666 µM) | 0.01 (≈ 0.0333 µM)
CS(=O)(=O)c1ccc(C(=O)OCC(=O)NC23CC4CC(CC(C4)C2)C3)cc1[N+](=O)[O-] | 3 µg/mL (inactive) (≈ 6.87 µM) | 1.8 (≈ 4.12 µM) | 2.5 (≈ 5.73 µM)
C/C=C/Cn1c(SCCCc2ccccc2)nc2c1c(=O)[nH]c(=O)n2C | 0.39 µg/mL (inactive) (≈ 1.05 µM) | 0.24 (≈ 0.648 µM) | 0.31 (≈ 0.837 µM)
O=c1[nH]c(SCc2ccc(Cl)cc2)nc2c1CCC2 | 0.94 µg/mL (inactive) (≈ 3.21 µM) | 0.45 (≈ 1.54 µM) | 0.52 (≈ 1.78 µM)
COc1ccc(OC)c(S(=O)(=O)Nc2cnc3ccccc3c2)c1 | 25.8 µg/mL (≈ 74.9 µM) | 20.8 (≈ 60.4 µM) | 25.7 (≈ 74.6 µM)
Cc1ccc(NC(=O)CCC(=O)N/N=C/c2ccc([N+](=O)[O-])o2)cc1C | 0.29 µg/mL (inactive) (≈ 0.809 µM) | 0.19 (≈ 0.53 µM) | 0.3 (≈ 0.837 µM)
CC[C@H]1CN2CCc3cc(OC)c(OC)cc3[C@@H]2C[C@@H]1C[C@H]1NCCc2cc(OC)c(OC)cc21 | > 55 µg/mL | > 55 | > 55
Cc1cc(C(=O)CN2C(=O)CCC2=O)c(C)n1Cc1ccccc1 | > 32 µg/mL | 25.2 (≈ 77.7 µM) | 22.6 (≈ 69.7 µM)
Brc1ccc2c(c1)CN1CCCC1=N2 | > 25 µg/mL | > 25 | > 25
Cc1ccc(NS(=O)(=O)c2ccc3c(c2)CCC(=O)N3)cc1C | 27.1 µg/mL (≈ 82 µM) | 26.2 (≈ 79.3 µM) | > 33
N#C/C(=C\c1ccc([N+](=O)[O-])o1)c1nc2ccccc2[nH]1 | 0.14 µg/mL (inactive) (≈ 0.5 µM) | 0.08 (≈ 0.285 µM) | 0.12 (≈ 0.428 µM)
